Data published in US8257725B2, “Delivery of highly lipophilic agents via medical devices” (Abbott Laboratories, priority 1997, dated 2012).
Each block holds one molecule with its values, some of them ahead of it.

Assays:
[1] = Pharmacokinetics after single intravenous dose in cynomolgus monkey; conditions: single 2.5 mg/kg intravenous dose
[2] = Six-hour elution from PC1036-coated coupons in pH 7.4 phosphate buffered saline; type: physicochemical; conditions: for amount released from the coupon: after six hours, PBS pH 7.4, 37° C.; for amount remaining on the coupon: six-hour elution
Procedure: Prior to any experimentation, coated stainless steel coupons were prepared. These coupons were 316L electropolished stainless steel discs (10 mm diameter). This size was chosen because the surface area of one side of the coupon is similar to the surface area of a 15-mm open cell BiodivYsio stent. […]. The cleaning was a two-step process in which the coupons are sonicated for 3 minutes in dichloromethylene and 3 minutes in ethanol. The coupons were allowed to dry at room temperature. One side of the coupon was coated using a filtered 20-mg/mL solution of phosphoryl choline polymer PC1036 (product of Biocompatibles Ltd., Famham, Surrey, UK) in ethanol. Twenty μL PC solution was placed onto the coupon using a gas tight glass syringe, ensuring that the entire surface was coated but not spilling over the sides of the coupon. The coupons were initially air dried and then cured at 70° C. for 16 hours. They were then sent for gamma irradiation at <25 KGy. The resulting PC coating thickness was close to that of the stent and thick enough to accommodate the desired loaded drug dose, as graphically represented in FIG. 9A-B. FIG. 9A-B is a top and side view of a coated stainless steel coupon 30, having a PC-coating 20 on a electropolished stainless steel disc.
In these experiments, beneficial agents were loaded onto coupons and elution profiles examined. In general, the procedure is as follows. Twelve PC-coated coupons were loaded with each drug. The solutions of the drugs were usually 5.0 mg/mL in 100% ethanol and were filtered with a 0.45 μm filter prior to use.
The coupons were weighed before loading with the drug solution. To load 100 μg of drug, 20 μL of solution was placed (e.g., pipetted) on the center of the PC coated side of the coupon. The coupon was placed in a vial for 30 minutes with the lid closed to allow the drug to penetrate the coating. The lid was removed and the coupon was allowed to dry for an additional 90 minutes. To ensure that the coupon was completely dry, the coupon was weighed, and after 15 minutes the coupon was weighed a third time. When two weightings of the coupon were the same, the coupon was considered dry. The loaded, dry coupons were stored in a refrigerator protected from light.
Six coated coupons of each drug were used for the elution experiments. The coupons were individually placed, coating side up, in small metal cups to hold the coupon and to allow movement to a new vial at each time point. The coupons were usually placed in a vial containing 10 mL of pH 7.4 phosphate buffered saline. The vials were stored in an orbital shaker, with horizontal shaking of 100 rpm, at 37° C. for at least 30 minutes before insertion of a coupon to allow the solution to equilibrate at the desired temperature. After the desired time had lapsed, the coupon holder was lifted and allowed to drain. It was then placed into a pre-warmed vial corresponding to the next time point. This procedure continued until the predetermined time had elapsed. At that point, the coupons went through a drug extraction step as outlined earlier. The amount of drug in the elution samples was determined by HPLC.

[3] = Aqueous solubility, shake-flask method; conditions: amorphous DES drugs; dexamethasone crystalline
[4] = representative summary for suitable beneficial agents; cited from earlier work
[5] = Octanol/water partition coefficient, shake-flask method; type: physicochemical; conditions: for transfer coefficient (P divided by S), order: FIG. 21, S = equilibrium aqueous solubility (μg/ml); for lipophilicity (partition coefficient octanol/water): n-octanol/buffered water
Procedure: “Solubility” is based on a standard measure used in medicinal chemistry. The octanol-water partition coefficient (P) is the ratio of distribution of a compound in a mixture of 1-octanol and H2O. LogP is the base 10 logarithm of the partition coefficient.
In the measurement of the partition coefficient (octanol/water), preliminary studies were conducted to determine the optimum drug concentration for each test, and the appropriate time for establishing the partition equilibrium. All experiments were carried out by two different analysts and on multiple drug lots.
A transfer coefficient, τ, can be defined as P divided by S, where P equals the partition coefficient and S equals theequilibrium aqueous solubility, (μg/ml) as shown in FIG. 21. […] Where S equals the equilibrium aqueous solubility of the amorphous form of the drug were possible.

[6] = Pig model, zotarolimus concentrations in tissues after ZoMaxx stents; type: in vivo; conditions: eluted from ZoMaxx stents, FIG. 25
[7] = Stability of drug on PC-coated stents after ETO sterilization (HPLC); type: physicochemical
Procedure: In these experiments, beneficial agents were loaded onto stents and the stability of the two drugs was examined. In general, the procedure was as follows. Multiple PC-coated stents were loaded with each drug combination from solution. The solutions of the drugs were usually in the range of 2-20 mg/mL of zotarolimus and 10.0 mg/mL dexamethasone in 100% ethanol, with ˜10% PC1036 added to the solution to enhance film formation.
The stents were weighed before loading with the drug solution. To load approximately […] of each drug, a solution with equal amounts of zotarolimus and dexamethasone was sprayed onto the stent in a controlled fashion. The stent was allowed to dry before the stents were re-weighed to determine total drug load. The loaded, dry stents were stored in a refrigerator and were protected from light.
After drug loading, stents were crimped onto catheter balloons and packaged into medical product Tyvek pouches for ETO (ethylene oxide) sterilization. The ETO sterilization process is standard in the medical device industry to ensure product safety. […]
For each drug, multiple stents were used to evaluate the purity and stability of the drug loaded by the above procedure. […] The concentration and the presence of degradant-related impurities of the drug in the extraction solution were analyzed by HPLC.

[8] = alone, in the absence of zotarolimus

- t1/2 ([1]; terminal elimination half-life): 2.8 h
Molecule: 40-epi-N-[2′-pyridone]-rapamycin [Example 2-pyridone]

Molecule: CO[C@H]1C[C@@H]2CC[C@@H](C)[C@@](O)(O2)C(=O)C(=O)N2CCCC[C@H]2C(=O)O[C@H]([C@H](C)C[C@@H]2CC[C@H](n3ncnn3)[C@H](OC)C2)CC(=O)[C@H](C)/C=C(\C)[C@@H](O)[C@@H](OC)C(=O)[C@H](C)C[C@H](C)/C=C/C=C/C=C/1C (single isomer, unassigned; less polar) [Example 1, 42-Epi-(tetrazolyl)-rapamycin (less polar isomer)]
- terminal elimination half-life (t1/2) compared to rapamycin [1]: substantially shorter

- amount released from the coupon [2, 8]: 50%
- amount released from the coupon ([2]; in the presence of zotarolimus): less than 10%
Molecule: CCCCN(CCCC)C(=O)CN1C[C@H](c2ccc3c(c2)OCO3)[C@@H](C(=O)O)[C@@H]1c1ccc(OC)cc1 [ABT-627, atrasentan]

Molecule: CO[C@H]1C[C@@H]2CC[C@@H](C)[C@@](O)(O2)C(=O)C(=O)N2CCCC[C@H]2C(=O)O[C@H]([C@H](C)C[C@@H]2CC[C@@H](O)[C@H](OC)C2)CC(=O)[C@H](C)/C=C(\C)[C@@H](O)[C@@H](OC)C(=O)[C@H](C)C[C@H](C)/C=C/C=C/C=C/1C [Rapamycin]
- Aqueous solubility, increasing order [3]: paclitaxel, zotarolimus, rapamycin, and dexamethasone (crystalline)
- LogP Values [4]: >4.5
- transfer coefficient (P divided by S), order [5]: zotarolimus>>paclitaxel>>rapamycin>dexamethasone
- lipophilicity (partition coefficient octanol/water) ([5]; shake-flask, FIG. 20): most lipophilic compounds in the group tested

- lipophilicity (partition coefficient octanol/water) ([5]; shake-flask, FIG. 20): most lipophilic of all DES drugs tested
- concentration in arterial tissue adjacent to the stent placement ([6]; all periods out to 28 days): substantial concentrations
Molecule: 3 S,6R,7E,9R,10R,12R,14S,15E,17E,19E,21S, 23S,26R,27R,34aS)-9,10,12,13,14,21,22,23,24,25,26,27,32,33,34,34a-Hexadecahydro-9,27-dihydroxy-3-[(1R)-2-[(1S,3R,4R)-3-methoxy-4-tetrazol-1-yl)cyclohexyl]-1-methylethyl]-10,21-dimethoxy-6,8,12,14,20,26-hexamethyl-23,27-epoxy-3H-pyrido[2,1-c][1,4]oxaazacyclohentriacontine-1,5,11,28,29(4H,6H,31H)-pentone [Zotarolimus]
- LogP Values [4]: >4.5
- transfer coefficient (P divided by S), order [5]: zotarolimus>>paclitaxel>>rapamycin>dexamethasone
- lipophilicity relative to rapamycin ([5]; shake-flask, FIG. 20): more than two times as lipophilic as rapamycin
- concentration in distal, unstented and subjacent myocardium and unstented and distal coronary arteries ([6]; throughout 28 days): therapeutically significant concentrations

Molecule: CC(=O)O[C@H]1C(=O)[C@@]2(C)[C@H]([C@H](OC(=O)c3ccccc3)[C@]3(O)C[C@H](OC(=O)[C@H](O)[C@@H](NC(=O)c4ccccc4)c4ccccc4)C(C)=C1C3(C)C)[C@]1(OC(C)=O)CO[C@@H]1C[C@@H]2O [Paclitaxel]
- Aqueous solubility, increasing order [3]: paclitaxel, zotarolimus, rapamycin, and dexamethasone (crystalline)
- transfer coefficient (P divided by S), order [5]: zotarolimus>>paclitaxel>>rapamycin>dexamethasone

- amount remaining on the coupon ([2]; coupon containing dexamethasone and zotarolimus): ~70%
- amount remaining on the coupon ([2]; no zotarolimus present): 25%
- degradation in the ETO sterilization environment ([7]; dexamethasone-only coating): degraded
- degradation in the ETO sterilization environment ([7]; loaded in combination with zotarolimus, 1-to-1 ratio): did not degrade
Molecule: C[C@@H]1C[C@H]2[C@@H]3CCC4=CC(=O)C=C[C@]4(C)[C@@]3(F)[C@@H](O)C[C@]2(C)[C@@]1(O)C(=O)CO [Dexamethasone]
- Aqueous solubility, increasing order [3]: paclitaxel, zotarolimus, rapamycin, and dexamethasone (crystalline)
- LogP Values [4]: ~1.9–2.2

- amount released from the coupon [2, 8]: ~90%
- amount released from the coupon ([2]; in the presence of zotarolimus): about 52%
Molecule: OCCN(CCO)c1nc(N2CCCCC2)c2nc(N(CCO)CCO)nc(N3CCCCC3)c2n1 [Dipyridamole]
